The values that follow come from ChEMBL document CHEMBL4673299, “A new sesquineolignan and four new neolignans isolated from the leaves of Piper betle, a traditional medicinal plant in Myanmar” (Bioorg Med Chem Lett, 2021).

The subject of the first test is RAW264.7. Kind of test: Anti-inflammatory activity in murine RAW264.7 cells assessed as inhibition of LPS-induced NO production at 50 uM relative to control. It is filed as functional. Conditions: Mus musculus.
For `C=CCc1cc(O)c2c(c1)-c1cc(O)c(O)cc1C(C=C)O2` (centres undefined), the inhibition at 50 µM is under 50%.
On to `C=CCc1cc(O)c(O)cc1-c1cc(OC)c(O)cc1CC=C`, for which the inhibition at 50 µM is under 50%.
The same measure, in the same setting: in the case of `C=CCc1cc(O)c2oc3cc(O)c(O)c(CC=C)c3c2c1` it was under 50%; in that of `COc1cc(/C=C/CO)ccc1O` [CONIFERYL ALCOHOL], under 50%; in that of `COc1cc(/C=C/C=O)ccc1O` [CONIFERYL ALDEHYDE], under 50%.
With `C=CCc1ccc(O)c(OC)c1` [EUGENOL], the inhibition at 50 µM was under 50%.
Take `COC(=O)/C=C/c1ccc(O)cc1` [METHYL P-HYDROXYCINNAMATE]: the inhibition at 50 µM is under 50%.
As for `COc1cc(C=O)ccc1O` [VANILLIN], the inhibition at 50 µM is under 50%.

A further test has as its system RAW264.7. Description: Anti-inflammatory activity in murine RAW264.7 cells assessed as inhibition of LPS-induced NO production. It is filed as functional, cell-based. The note with it: Mus musculus.
For `C=CCc1cc(O)c(OC)cc1C/C=C/c1ccc(OC)c(O)c1`, the IC50 came to 45.9 µM.
On the same count and under the same terms, next, `C=CCc1ccc2c(c1)O[C@@H](c1ccc(O)c(O)c1)[C@H](Cc1cc(O)c(O)cc1CC=C)O2`: 9.87 µM.
The same measure, in the same setting: next, `C=CCc1cc(O)c(O)cc1-c1cc(O)c(O)cc1CC=C`: 40.5 µM; `C=CCc1ccc(O)c(O)c1` [HYDROXYCHAVICOL]: 4.8 µM.
With `CNC(=N)NCCC[C@H](N)C(=O)O` [TILARGININE], the half-inhibitory concentration (IC50) came to 33.8 µM.
Regarding `O=C/C=C/c1ccc(O)cc1` [p-HYDROXYCINNAMALDEHYDE], the IC50 worked out at 26.4 µM.
